Data: patent US9556122B2, “Luminescent 1-hydroxy-2-pyridinone chelates of lanthanides” (THE REGENTS OF THE UNIVERSITY OF CALIFORNIA, priority 2006, dated 2017)

Test: Preliminary extraction study
Conditions: over a wide range of acidity and ionic strength

In the case of CCCCCCCCNC(=O)c1cccc(=O)n1O [octyl-1,2-HOPO, 1-Hydroxy-6-N-octylcarboxamide-2(1H)-pyridinone], the “specificity as extractant for Pu(IV)” value is reported as “high specificity”.
